Laboratory results: patent publication US10435355B2, “Inhibitors of fatty acid amide hydrolase (FAAH) enzyme with improved oral bioavailability and their use as medicaments” (THE REGENTS OF THE UNIVERSITY OF CALIFORNIA, priority 2014, dated 2019)

Experiment: Pharmacokinetic experiment (PO and IV) in cannulated rats
Assay type: in vivo, Sprague-Dawley rats
Details: rat, plasma
Method: Pharmacokinetic Experiment and Analysis
Compounds were administered orally (PO) and intravenously (IV) to cannulated Sprague-Dawley rats at 10 and 3 mg/kg, respectively. Vehicle was: PEG400/Tween 80/Saline solution at 10/10/80 (% in volume), respectively. Three animals per dose were treated. Blood samples at 0, 15, 30, 60, 120, 240, 480 and 1440 min after administration were collected for PO arm. Blood samples at 0, 5, 15, 30, 60, 120 and 240 min after administration were collected for IV arm. Plasma was separated from blood by centrifugation for 15 min at 3500 rpm a 4° C., collected in a Eppendorf tube and frozen (−80° C.). Control animals treated with vehicle only were also included in the experimental protocol.
Preparation of Samples, Standard Curve and QC Samples for UPLC-MS Analysis
Samples were thawed in an ice bath and after a short centrifugation transferred (50 μL) into a 96-deepwell plate and added with 150 μL of acetonitrile spiked with 200 nM Warfarin (the Internal Standard, I.S.). After agitation (3 min) the plate was centrifuged at 3000 g for 10 min at 4° C. […]
Compounds plasma levels were monitored on a Xevo TQ UPLC-MS/MS system (Waters, Milford USA), using the calibration curve and the internal standard (Warfarin). […] Plasma levels data were analyzed using PKSolutions excel application (Summit Research Service, USA) to derive the most important pharmacokinetic parameters. […]

Compound: CNC(=O)c1cccc(-c2cccc(OC(=O)NC3CCCCC3)c2)c1
- AUC PO (10 mg/kg): 90205 ng·min/mL
